The first assay relates to HCC-78. As to the kind of experiment: relative viability (nuclei count vs DMSO), 5 days (fraction); higher = more cells survive. The settings on record: first compound 0.8 µM. The essentials:
(§1)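 Dosing by pin tool came one day after lung cancer cell lines were seeded in 1536-well plates, using either one drug or a fixed anchor-drug dose plus five library-drug doses (not always all listed) in √10 steps. After 5 days, nuclei were counted on 4× images. Relative viability is treated-well nuclei count divided by vehicle-well nuclei count, and values are medians of duplicate plates.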
Compound `CCCCCCCCCCCC1=C(O)C(=O)C=C(O)C1=O` [Embelin] + Cc1cc(Nc2cc(N3CCN(C)CC3)nc(Sc3ccc(NC(=O)C4CC4)cc3)n2)n[nH]1 [Tozasertib] (partner 0.1 µM) displayed a relative viability of 0.511.
On the same count and under the same terms, to `CCCCCCCCCCCC1=C(O)C(=O)C=C(O)C1=O` [Embelin] + CC(=O)Nc1cccc(-n2c(=O)n(C3CC3)c(=O)c3c(Nc4ccc(I)cc4F)n(C)c(=O)c(C)c32)c1 [Trametinib] (partner 0.02 µM) belongs 0.831; to `CCCCCCCCCCCC1=C(O)C(=O)C=C(O)C1=O` [Embelin] + Nc1ncn([C@H]2C[C@H](O)[C@@H](CO)O2)c(=O)n1 [Decitabine] (partner 2 µM), 0.751.
Still for that read-out and setting: to `CCCCCCCCCCCC1=C(O)C(=O)C=C(O)C1=O` [Embelin] + COc1cccc2cc(-c3nc([C@H]4CC[C@H](C(=O)O)CC4)n4ncnc(N)c34)[nH]c12 [OSI-027] (partner 0.5 µM) belongs 0.369; to `CCCCCCCCCCCC1=C(O)C(=O)C=C(O)C1=O` [Embelin] + Nc1nc2[nH]cc(CCc3ccc(C(=O)N[C@@H](CCC(=O)O)C(=O)O)cc3)c2c(=O)[nH]1 [Pemetrexed] (partner 0.2 µM), 0.895.

Staying with this assay, now noted: first compound 2.53 µM.
On to `CCCCCCCCCCCC1=C(O)C(=O)C=C(O)C1=O` [Embelin] + Cc1cc(Nc2cc(N3CCN(C)CC3)nc(Sc3ccc(NC(=O)C4CC4)cc3)n2)n[nH]1 [Tozasertib] (partner 0.1 µM), for which the relative viability is 0.697.
Still for that read-out and setting: under `CCCCCCCCCCCC1=C(O)C(=O)C=C(O)C1=O` [Embelin] + CC(=O)Nc1cccc(-n2c(=O)n(C3CC3)c(=O)c3c(Nc4ccc(I)cc4F)n(C)c(=O)c(C)c32)c1 [Trametinib] (partner 0.02 µM) stands 0.752; under `CCCCCCCCCCCC1=C(O)C(=O)C=C(O)C1=O` [Embelin] + Nc1ncn([C@H]2C[C@H](O)[C@@H](CO)O2)c(=O)n1 [Decitabine] (partner 2 µM), 0.71; under `CCCCCCCCCCCC1=C(O)C(=O)C=C(O)C1=O` [Embelin] + COc1cccc2cc(-c3nc([C@H]4CC[C@H](C(=O)O)CC4)n4ncnc(N)c34)[nH]c12 [OSI-027] (partner 0.5 µM), 0.343.
Same read-out and setting: under `CCCCCCCCCCCC1=C(O)C(=O)C=C(O)C1=O` [Embelin] + Nc1nc2[nH]cc(CCc3ccc(C(=O)N[C@@H](CCC(=O)O)C(=O)O)cc3)c2c(=O)[nH]1 [Pemetrexed] (partner 0.2 µM) stands 0.982.

The same assay, now with this note: first compound 8 µM.
The compound `CCCCCCCCCCCC1=C(O)C(=O)C=C(O)C1=O` [Embelin] + Cc1cc(Nc2cc(N3CCN(C)CC3)nc(Sc3ccc(NC(=O)C4CC4)cc3)n2)n[nH]1 [Tozasertib] (partner 0.1 µM) showed a relative viability of 0.437.
Same read-out and setting: to `CCCCCCCCCCCC1=C(O)C(=O)C=C(O)C1=O` [Embelin] + CC(=O)Nc1cccc(-n2c(=O)n(C3CC3)c(=O)c3c(Nc4ccc(I)cc4F)n(C)c(=O)c(C)c32)c1 [Trametinib] (partner 0.02 µM) belongs 0.696.
Same read-out and setting: under `CCCCCCCCCCCC1=C(O)C(=O)C=C(O)C1=O` [Embelin] + Nc1ncn([C@H]2C[C@H](O)[C@@H](CO)O2)c(=O)n1 [Decitabine] (partner 2 µM) stands 0.675; under `CCCCCCCCCCCC1=C(O)C(=O)C=C(O)C1=O` [Embelin] + COc1cccc2cc(-c3nc([C@H]4CC[C@H](C(=O)O)CC4)n4ncnc(N)c34)[nH]c12 [OSI-027] (partner 0.5 µM), 0.41.
The same measure, in the same setting: to `CCCCCCCCCCCC1=C(O)C(=O)C=C(O)C1=O` [Embelin] + Nc1nc2[nH]cc(CCc3ccc(C(=O)N[C@@H](CCC(=O)O)C(=O)O)cc3)c2c(=O)[nH]1 [Pemetrexed] (partner 0.2 µM) belongs 0.949.

For a further assay, the system named is NCI-H3122. The description is as above. The settings on record: first compound 0.08 µM. The essentials: as §1
`CCCCCCCCCCCC1=C(O)C(=O)C=C(O)C1=O` [Embelin] + Cc1cc(Nc2cc(N3CCN(C)CC3)nc(Sc3ccc(NC(=O)C4CC4)cc3)n2)n[nH]1 [Tozasertib] (partner 0.1 µM) came in with a relative viability of 0.356.
Same read-out and setting: to `CCCCCCCCCCCC1=C(O)C(=O)C=C(O)C1=O` [Embelin] + CC(=O)Nc1cccc(-n2c(=O)n(C3CC3)c(=O)c3c(Nc4ccc(I)cc4F)n(C)c(=O)c(C)c32)c1 [Trametinib] (partner 0.02 µM) belongs 0.251.
The compound `CCCCCCCCCCCC1=C(O)C(=O)C=C(O)C1=O` [Embelin] + Nc1ncn([C@H]2C[C@H](O)[C@@H](CO)O2)c(=O)n1 [Decitabine] (partner 2 µM) returned a relative viability of 0.385.
The compound `CCCCCCCCCCCC1=C(O)C(=O)C=C(O)C1=O` [Embelin] + COc1cccc2cc(-c3nc([C@H]4CC[C@H](C(=O)O)CC4)n4ncnc(N)c34)[nH]c12 [OSI-027] (partner 0.5 µM) gave a relative viability of 0.857.
Same read-out and setting: under `CCCCCCCCCCCC1=C(O)C(=O)C=C(O)C1=O` [Embelin] + Nc1nc2[nH]cc(CCc3ccc(C(=O)N[C@@H](CCC(=O)O)C(=O)O)cc3)c2c(=O)[nH]1 [Pemetrexed] (partner 0.2 µM) stands 0.193.

The assay is the same for the next values; noted with them: first compound 0.8 µM.
As for `CCCCCCCCCCCC1=C(O)C(=O)C=C(O)C1=O` [Embelin] + Cc1cc(Nc2cc(N3CCN(C)CC3)nc(Sc3ccc(NC(=O)C4CC4)cc3)n2)n[nH]1 [Tozasertib] (partner 0.1 µM), the relative viability was determined as 0.457.
Same read-out and setting: under `CCCCCCCCCCCC1=C(O)C(=O)C=C(O)C1=O` [Embelin] + CC(=O)Nc1cccc(-n2c(=O)n(C3CC3)c(=O)c3c(Nc4ccc(I)cc4F)n(C)c(=O)c(C)c32)c1 [Trametinib] (partner 0.02 µM) stands 0.253; under `CCCCCCCCCCCC1=C(O)C(=O)C=C(O)C1=O` [Embelin] + Nc1ncn([C@H]2C[C@H](O)[C@@H](CO)O2)c(=O)n1 [Decitabine] (partner 2 µM), 0.446; under `CCCCCCCCCCCC1=C(O)C(=O)C=C(O)C1=O` [Embelin] + COc1cccc2cc(-c3nc([C@H]4CC[C@H](C(=O)O)CC4)n4ncnc(N)c34)[nH]c12 [OSI-027] (partner 0.5 µM), 1.15.
On the same count and under the same terms, to `CCCCCCCCCCCC1=C(O)C(=O)C=C(O)C1=O` [Embelin] + Nc1nc2[nH]cc(CCc3ccc(C(=O)N[C@@H](CCC(=O)O)C(=O)O)cc3)c2c(=O)[nH]1 [Pemetrexed] (partner 0.2 µM) belongs 0.202.

Still in this assay, the particulars now being: first compound 2.53 µM.
As to `CCCCCCCCCCCC1=C(O)C(=O)C=C(O)C1=O` [Embelin] + Cc1cc(Nc2cc(N3CCN(C)CC3)nc(Sc3ccc(NC(=O)C4CC4)cc3)n2)n[nH]1 [Tozasertib] (partner 0.1 µM), the relative viability is 0.424.
The same measure, in the same setting: under `CCCCCCCCCCCC1=C(O)C(=O)C=C(O)C1=O` [Embelin] + CC(=O)Nc1cccc(-n2c(=O)n(C3CC3)c(=O)c3c(Nc4ccc(I)cc4F)n(C)c(=O)c(C)c32)c1 [Trametinib] (partner 0.02 µM) stands 0.238; under `CCCCCCCCCCCC1=C(O)C(=O)C=C(O)C1=O` [Embelin] + Nc1ncn([C@H]2C[C@H](O)[C@@H](CO)O2)c(=O)n1 [Decitabine] (partner 2 µM), 0.419.

Values taken from the supplement of paper PMC10307832.
